According to patent US9682130B2 (priority 2015, dated 2017):
≈ marks a conversion by molar mass, not a printed value. Read-outs that look alike come from different tables or passages of the source. Values belong to the compound of their own block, whether it stands above or below them.

Columns and labels:
[1] = Eye irritation, Draize scale (MMTS), Ad5/NZW rabbit ocular model; assay type: in vivo; settings: NZW, rabbit, in vivo
Description: (§1) To conduct this in vivo assay, 25 NZW rabbit were anesthetized using the general anesthesia ketamine and xylazine and the topical anesthesia proparacaine. Each rabbit was then topically inoculated with 50 μL of Adenovirus serotype Ad5 (3×10^7 pfu/mL) in both eyes after corneal epithelial scarification (12 cross-hatched strokes of a 25 sterile needle). Eyes were closed and gently rubbed for 5 seconds to ensure contact of the virus on all ocular surfaces. Inoculation of both eyes allowed for the reduction in the number of animals needed without jeopardizing statistical validity. […] All topical solutions (37 μL drops) were instilled with an electronic pipette (EDP; Rainin, Oakland, Calif.) set in the multi-dispense mode. Ocular swabbing to recover adenovirus from tear film and corneal and conjunctival surfaces, after topical anesthesia with proparacaine, was performed at least 1 hour after the final dose on days 0, 1, 3, 4, 5, 7, 9, 11, and 14 after inoculation. The ocular samples from each eye was placed individually into tubes containing 1 mL of medium and were frozen at −70° C. pending viral plaque assay.
The animals were assayed for eye irritation using a Draize scale for ocular lesions. Classification of eye irritation was evaluated for both eyes of each rabbit on day 3 and day 9 using the maximum mean total score (MMTS; Table 4). See, e.g., Kay and Calandra, Interpretation of Eye Irritation Tests, J. Soc. Cos. Chem. 13: 281-289 (1962), the content of which is hereby incorporated by reference in its entirety. The MMTS score used was as follows: 0.0-0.5, Non-Irritating (N); 0.6-2.5, Practically Non-Irritating (PN); 2.6-15.0, Minimally Irritating (M1); 15.1-25.0, Mildly Irritating (M2); 25.1-50.0, Moderately Irritating (M3); 50.1-80.0, Severely Irritating (S); 80.1-100.0, Extremely Irritating (E); and 100.1-110.0, Maximally Irritating (Mx).

Adenovirus serotype Ad5 = assay: Ad5/NZW rabbit ocular replication model, plaque assay of ocular samples; assay type: in vivo; settings: 0.5% Cidofovir, twice daily 7 days
Description: See, e.g., Romanowski, et al., The In Vitro and In Vivo Evaluation of ddC as a Topical Antiviral for Ocular Adenovirus Infections, Invest. Ophthalmol. Vis. Sci. 50: 5295-5299 (2009), which is hereby incorporated by reference in its entirety.
as §1, with “surfaces.” for “surfaces. Inoculation of both eyes allowed for the reduction in the number of animals needed without jeopardizing statistical validity.”
The ocular samples were assayed for Ad5 titers by performing a plaque reduction assay. Samples were diluted 1:10 and these dilutions were inoculated onto duplicate wells of a 24 well multi-plate containing A549 monolayers. The virus was adsorbed for 3 hours at 37° C. in a 5% CO2-water vapor atmosphere without constant rocking. After adsorption, 1 mL of medium plus 0.5% methylcellulose was added to each well, and the plates were incubated at 37° C. in a 5% CO2-water vapor atmosphere. After 7 days, the cells were stained with 0.5% gentian violet, and the number of plaques counted using a dissecting microscope (25×). The viral titers were then calculated, and will be expressed as plaque-forming units per milliliter (PFU/mL). Data from the study were analyzed using analysis of variance (ANOVA) with Fisher's pair-wise comparisons and X^2 analyses using True Epistat and/or Minitab statistical software. Significance was established at the P≦0.05 confidence level.

in vitro = settings: African green monkey
[2] = system: Human Adenovirus 8 (Ad8 strain 13306); assay: Neutral red lysosomal uptake assay, Adenovirus 8; assay type: cell-based; settings: MA104; Adenovirus 8, MA-104 cells
Description: (§2) To assess in vitro cytotoxicity, both a cytopathic effects of a virus (CPE) regression assay and a neutral red lysosomal uptake cell viability assay was performed essentially as described in, e.g., Repetto, et al., Neutral Red Uptake Assay for the Estimation of Cell Viability/Cytotoxicity, Nat. Protoc. 3: 1125-1131 (2008), the content of which is hereby incorporated by reference in its entirety. Ninety-six-well plates were seeded with MA-104 cells at 1×10^5 cells/mL and incubated overnight at 37° C. with 5% CO2. […] Each dilution was added to 5 wells of a 96-well plate with 80% to 100% confluent cells, and three wells of each dilution were then infected with one of the two test viruses. Two wells remained uninfected as controls for toxicity. Six wells per plate were set aside as uninfected, untreated cell controls, and six wells per plate were infected with no treatment as virus controls. […] Assay plates were incubated at 37° C. with 5% CO2. […] After CPE reduction assay was completed, a neutral red lysosomal uptake assay was conducted by filling each well with 0.011% (m/v) neutral red, a vital stain. The plates then were incubated for about 2 hours at 37° C. in the dark. […] The plates were then read on a spectrophotometer at 540 nm to quantify the neutral red taken up by the healthy cells. […]

MA-104 cells = settings: African green monkey
[3] = system: Human Adenovirus 8 (Ad8 strain 13306); assay: CPE reduction assay, Adenovirus 8; assay type: cell-based; settings: MA104; Adenovirus 8, MA-104 cells
Description: as §2

[4] = system: Human Adenovirus 5 (AD5 strain NYS #98-1836); assay: microbe, parasite or virus in culture; assay type: cell-based; settings: Human mastadenovirus C, MA104, Adenovirus 5, MA-104 cells
Description: To assess in vitro cytotoxicity, both a cytopathic effects of a virus (CPE) regression assay and a neutral red lysosomal uptake cell viability assay was performed essentially as described in, e.g., Repetto, et al., Neutral Red Uptake Assay for the Estimation of Cell Viability/Cytotoxicity, Nat. Protoc. 3: 1125-1131 (2008), the content of which is hereby incorporated by reference in its entirety. Ninety-six-well plates were seeded with MA-104 cells at 1×10^5 cells/mL and incubated overnight at 37° C. with 5% CO2. […] Each dilution was added to 5 wells of a 96-well plate with 80% to 100% confluent cells, and three wells of each dilution were then infected with one of the two test viruses. Two wells remained uninfected as controls for toxicity. Six wells per plate were set aside as uninfected, untreated cell controls, and six wells per plate were infected with no treatment as virus controls. […] Assay plates were incubated at 37° C. with 5% CO2. […] After CPE reduction assay was completed, a neutral red lysosomal uptake assay was conducted by filling each well with 0.011% (m/v) neutral red, a vital stain. The plates then were incubated for about 2 hours at 37° C. in the dark. The unincorporated neutral red solution was removed from the wells and the incorporated dye was then eluted by adding Sorensen's citrate-buffered ethanol. The plates were then read on a spectrophotometer at 540 nm to quantify the neutral red taken up by the healthy cells. The optical density of test wells was converted to percent of cell control and normalized to the virus controls.
The concentration of test compound required to inhibit CPE by 50% or reduce red uptake into cells by 50% (EC50) was calculated by regression analysis. The toxicity of the compound without virus present was similarly calculated using the uninfected wells treated with test compounds compared with untreated cell controls. The concentration of compound that would cause 50% cytotoxic effects in the absence of virus (CC50) was estimated by linear regression analysis. The selectivity index (SI) is the CC50 divided by EC50.

SMILES: Nc1ccn(C[C@@H](CO)OCP(=O)(O)O)c(=O)n1 [CDV, Cidofovir, reference compound]
- Ocular irritation MMTS score, Day 3 ([1]; 3 day): 5.9
- Ocular irritation MMTS score, Day 9 ([1]; 9 day): 27.5
- Ad5-positive ocular samples, percent, Day 1 (Adenovirus serotype Ad5): 100%
- Ad5-positive ocular samples, percent, Day 3 (Adenovirus serotype Ad5): 100%
- Ad5-positive ocular samples, percent, Day 4 (Adenovirus serotype Ad5): 100%
- Ad5-positive ocular samples, percent, Day 5 (Adenovirus serotype Ad5): 100%
- Ad5-positive ocular samples, percent, Day 7 (Adenovirus serotype Ad5): 63%
- Ad5-positive ocular samples, percent, Day 11 (Adenovirus serotype Ad5): 0%
- Ad5-positive ocular samples, percent, Day 14 (Adenovirus serotype Ad5): 0%
- Ad5-positive ocular samples, percent, Total (Adenovirus serotype Ad5): 66.1%
- Ad5-positive ocular samples/total eyes, Day 1 (Adenovirus serotype Ad5): 8/8
- Ad5-positive ocular samples/total eyes, Day 3 (Adenovirus serotype Ad5): 8/8
- Ad5-positive ocular samples/total eyes, Day 4 (Adenovirus serotype Ad5): 8/8
- Ad5-positive ocular samples/total eyes, Day 5 (Adenovirus serotype Ad5): 8/8
- Ad5-positive ocular samples/total eyes, Day 7 (Adenovirus serotype Ad5): 5/8
- Ad5-positive ocular samples/total eyes, Day 11 (Adenovirus serotype Ad5): 0/8
- Ad5-positive ocular samples/total eyes, Day 14 (Adenovirus serotype Ad5): 0/8
- Ad5-positive ocular samples/total eyes, Total (Adenovirus serotype Ad5): 37/56

- EC50 [3]: 2.1 µg/mL (≈ 9.94 µM)
- EC50 ([4]; read-out: CPE Reduction Assay EC50): 2.1 µg/mL (≈ 9.94 µM)
SMILES: Nc1ccn([C@H]2CC[C@@H](CO)O2)c(=O)n1 [ddC, 2′, 3′-Dideoxycytidine]
- CC50 (in vitro): < 5000 µg/mL
- EC50 [2]: 2.7 µg/mL (≈ 12.8 µM)
- CPE Reduction Assay CC50 (MA-104 cells): <5000 µg/mL
- Neutral Red Assay CC50 (MA-104 cells): <5000 µg/mL
- EC50 ([4]; read-out: Neutral Red Assay EC50): 2.7 µg/mL (≈ 12.8 µM)
